Each molecule was assayed against T1, menin/MLL binding (biotinylated wild-type or mutated menin and MLL-AF9 fusion protein) (Homo sapiens, UniProt O00255) (assay: Assay 1 (Binding Assay): AlphaLISA menin/MLL binding). Conditions: 5 nM biotinylated menin, MLL-AF9-FLAG lysate.
T1 construct: biotinylated (1) wild-type menin or (2) mutated menin (described in Nature (2012) Vol. 482, pp. 542-548); fused on or other part: Biotin attached chemically (Sulfo-NHS-Biotin); no fused second protein is printed for menin
T1 sequence (O00255 1-459 limits assumed): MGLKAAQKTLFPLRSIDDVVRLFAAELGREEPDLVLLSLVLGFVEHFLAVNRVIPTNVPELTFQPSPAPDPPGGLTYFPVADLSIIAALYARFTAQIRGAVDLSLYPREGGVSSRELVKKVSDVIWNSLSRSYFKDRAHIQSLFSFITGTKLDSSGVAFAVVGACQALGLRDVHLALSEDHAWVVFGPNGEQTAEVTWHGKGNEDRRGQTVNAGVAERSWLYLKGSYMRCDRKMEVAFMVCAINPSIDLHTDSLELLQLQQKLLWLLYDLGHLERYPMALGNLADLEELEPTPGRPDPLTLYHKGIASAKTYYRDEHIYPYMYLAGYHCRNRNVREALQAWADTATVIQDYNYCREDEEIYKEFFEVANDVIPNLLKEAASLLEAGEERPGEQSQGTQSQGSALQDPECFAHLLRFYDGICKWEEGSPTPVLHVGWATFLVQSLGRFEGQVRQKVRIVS
Experimental: Potencies of inhibitor compounds against menin/MLL binding were assessed by AlphaLISA assay using biotinylated (1) wild-type menin or (2) mutated menin (described in Nature (2012) Vol. 482, pp. 542-548) and MLL-AF9 fusion protein bearing a FLAG epitope at its C-terminus. Menin proteins were expressed in E. coli and covalently modified with biotin using EZ-Link™ Sulfo-NHS-Biotin (ThermoFisher Cat. No. 21217) according to manufacturer's protocol. MLL1-1,396 fused to AF91-92 and the C-terminal FLAG peptide was expressed in HEK293 cells and used as a lysate cleared at 21,000×g for 10 min.
Compounds (2 μL of solutions in DMSO) were dispensed in white 96-well half-area plates (Corning Cat. No. 3693) and incubated for 30 min at RT with 5 nM biotinylated menin and appropriate amount of MLL-AF9-FLAG lysate in 40 μL of 50 mM Tris-HCl buffer pH 7.4 containing 5% (v/v) DMSO, 50 mM NaCl, 0.01% (w/v) bovine serum albumin (BSA) and 1 mM DTT. To this incubation mixture, 40 μl of AlphaLISA anti-FLAG acceptor (PerkinElmer Cat. No. AL112C) and streptavidin donor (PerkinElmer Cat. No. 6760002) beads (10 μg/mL each) was added and incubation continued at RT for 60 min. Alpha (amplified luminescent proximity homogeneous assay) signal was measured on an Envision multi-label plate reader at the end of the incubation. All steps were conducted under dim fluorescent light.
These percent inhibition values were regressed against compound concentrations in the assay using four parameter logit non-linear curve fitting (XLFit, IDBS). The IC50 values were derived from the curve fitting as inflection points on the dose-response curves and are set out in Table 14 below.

SMILES | IC50
Cc1cc(F)ccc1-n1cc(C2CCN(Cc3ccc4[nH]c(C#N)cc4c3C)CC2)c2ncncc21 [Example 70, 5-((4-(5-(4-fluoro-2-methylphenyl)-5H-pyrrolo[3,2-d]pyrimidin-7-yl)piperidin-1-yl)methyl)-4-methyl-1H-indole-2-carbonitrile] | 0.1 to 1 µM
CC(C)N(C)C(=O)c1cc(F)ccc1-n1c(=O)n(C2CCN(Cc3ccc4[nH]c(=O)[nH]c4c3)CC2)c2ccncc21 [Example 79, 5-fluoro-N-isopropyl-N-methyl-2-(2-oxo-1-(1-((2-oxo-2,3-dihydro-1H-benzo[d]imidazol-5-yl)methyl)piperidin-4-yl)-1,2-dihydro-3H-imidazo[4,5-c]pyridin-3-yl)benzamide] | ≥ 1 µM
CC(C)N(C)C(=O)c1cc(F)ccc1-n1c(=O)n(C2CCN(CC3CCCCC3)CC2)c2ccncc21 [Example 81, 2-(1-(1-(cyclohexylmethyl)piperidin-4-yl)-2-oxo-1,2-dihydro-3H-imidazo[4,5-c]pyridin-3-yl)-5-fluoro-N-isopropyl-N-methylbenzamide] | < 0.1 µM
CC(C)N(C)C(=O)c1cc(F)ccc1-n1c(=O)n(C2CCN(Cc3ccc(F)cc3)CC2)c2ccncc21 [Example 83, 5-fluoro-2-(1-(1-(4-fluorobenzyl)piperidin-4-yl)-2-oxo-1,2-dihydro-3H-imidazo[4,5-c]pyridin-3-yl)-N-isopropyl-N-methylbenzamide] | 0.1 to 1 µM
CC(C)N(C)C(=O)c1cc(F)ccc1-n1cc(C2CC3CN(C[C@H]4C[C@H](NS(C)(=O)=O)C4)CC3C2)c2ccncc21 (stereo partly drawn) [Example 89, 5-fluoro-N-isopropyl-N-methyl-2-(3-(2-((trans-3-(methylsulfonamido)cyclobutyl)methyl)octahydrocyclopenta[c]pyrrol-5-yl)-1H-pyrrolo[2,3-c]pyridin-1-yl)benzamide] | < 0.1 µM

More lines, now with the values ahead:

IC50 | SMILES
0.1 to 1 µM | Cc1c(CN2CCC(c3cn(-c4ccc(F)cc4)c4cncnc34)CC2)ccc2[nH]c(C#N)cc12 [Example 66, 5-((4-(5-(4-fluorophenyl)-5H-pyrrolo[3,2-d]pyrimidin-7-yl)piperidin-1-yl)methyl)-4-methyl-1H-indole-2-carbonitrile]
≥ 1 µM | O=c1[nH]c2ccc(CN3CCC(c4cn(-c5ccc(F)cc5)c5cncnc45)CC3)cc2[nH]1 [Example 67, 5-((4-(5-(4-fluorophenyl)-5H-pyrrolo[3,2-d]pyrimidin-7-yl)piperidin-1-yl)methyl)-1H-benzo[d]imidazol-2(3H)-one]
≥ 1 µM | Fc1ccc(-n2cc(C3CCN(Cc4ccc5cc[nH]c5c4)CC3)c3ncncc32)cc1 [Example 68, 7-(1-((1H-indol-6-yl)methyl)piperidin-4-yl)-5-(4-fluorophenyl)-5H-pyrrolo[3,2-d]pyrimidine]
0.1 to 1 µM | Fc1ccc(-n2cc(C3CCN(Cc4ccc5[nH]ccc5c4)CC3)c3ncncc32)cc1 [Example 69, 7-(1-((1H-indol-5-yl)methyl)piperidin-4-yl)-5-(4-fluorophenyl)-5H-pyrrolo[3,2-d]pyrimidine]
≥ 1 µM | Cc1c(CN2CCC(c3cn(-c4cccc(F)c4)c4cncnc34)CC2)ccc2[nH]c(C#N)cc12 [Example 71, 5-((4-(5-(3-fluorophenyl)-5H-pyrrolo[3,2-d]pyrimidin-7-yl)piperidin-1-yl)methyl)-4-methyl-1H-indole-2-carbonitrile]
≥ 1 µM | Cc1c(CN2CCC(c3cn(-c4ccccc4)c4cncnc34)CC2)ccc2[nH]c(C#N)cc12 [Example 72, 4-methyl-5-((4-(5-phenyl-5H-pyrrolo[3,2-d]pyrimidin-7-yl)piperidin-1-yl)methyl)-1H-indole-2-carbonitrile]
≥ 1 µM | O=c1[nH]c2ccc(CN3CCC(c4cn(-c5ccccc5)c5cncnc45)CC3)cc2[nH]1 [Example 73, 5-((4-(5-phenyl-5H-pyrrolo[3,2-d]pyrimidin-7-yl)piperidin-1-yl)methyl)-1H-benzo[d]imidazol-2(3H)-one]

Source: patent publication US10899758B2, “Inhibitors of the menin-MLL interaction” (Vitae Pharmaceuticals, LLC, priority 2016, dated 2021)
